Literature values as cited in patent US20250152568A1, “METHODS OF TREATING COMPLEX REGIONAL PAIN SYNDROME” (Aisa Pharma, Inc., priority 2022, published 2025).

Target: Nav 1.7 sodium channel (Homo sapiens, UniProt Q15858)
Details: 20 mg dose of cilnidipine vs 1800 mg dose of gabapentin; see WO2021/178903

Sequence of Nav 1.7 sodium channel (Q15858 whole entry): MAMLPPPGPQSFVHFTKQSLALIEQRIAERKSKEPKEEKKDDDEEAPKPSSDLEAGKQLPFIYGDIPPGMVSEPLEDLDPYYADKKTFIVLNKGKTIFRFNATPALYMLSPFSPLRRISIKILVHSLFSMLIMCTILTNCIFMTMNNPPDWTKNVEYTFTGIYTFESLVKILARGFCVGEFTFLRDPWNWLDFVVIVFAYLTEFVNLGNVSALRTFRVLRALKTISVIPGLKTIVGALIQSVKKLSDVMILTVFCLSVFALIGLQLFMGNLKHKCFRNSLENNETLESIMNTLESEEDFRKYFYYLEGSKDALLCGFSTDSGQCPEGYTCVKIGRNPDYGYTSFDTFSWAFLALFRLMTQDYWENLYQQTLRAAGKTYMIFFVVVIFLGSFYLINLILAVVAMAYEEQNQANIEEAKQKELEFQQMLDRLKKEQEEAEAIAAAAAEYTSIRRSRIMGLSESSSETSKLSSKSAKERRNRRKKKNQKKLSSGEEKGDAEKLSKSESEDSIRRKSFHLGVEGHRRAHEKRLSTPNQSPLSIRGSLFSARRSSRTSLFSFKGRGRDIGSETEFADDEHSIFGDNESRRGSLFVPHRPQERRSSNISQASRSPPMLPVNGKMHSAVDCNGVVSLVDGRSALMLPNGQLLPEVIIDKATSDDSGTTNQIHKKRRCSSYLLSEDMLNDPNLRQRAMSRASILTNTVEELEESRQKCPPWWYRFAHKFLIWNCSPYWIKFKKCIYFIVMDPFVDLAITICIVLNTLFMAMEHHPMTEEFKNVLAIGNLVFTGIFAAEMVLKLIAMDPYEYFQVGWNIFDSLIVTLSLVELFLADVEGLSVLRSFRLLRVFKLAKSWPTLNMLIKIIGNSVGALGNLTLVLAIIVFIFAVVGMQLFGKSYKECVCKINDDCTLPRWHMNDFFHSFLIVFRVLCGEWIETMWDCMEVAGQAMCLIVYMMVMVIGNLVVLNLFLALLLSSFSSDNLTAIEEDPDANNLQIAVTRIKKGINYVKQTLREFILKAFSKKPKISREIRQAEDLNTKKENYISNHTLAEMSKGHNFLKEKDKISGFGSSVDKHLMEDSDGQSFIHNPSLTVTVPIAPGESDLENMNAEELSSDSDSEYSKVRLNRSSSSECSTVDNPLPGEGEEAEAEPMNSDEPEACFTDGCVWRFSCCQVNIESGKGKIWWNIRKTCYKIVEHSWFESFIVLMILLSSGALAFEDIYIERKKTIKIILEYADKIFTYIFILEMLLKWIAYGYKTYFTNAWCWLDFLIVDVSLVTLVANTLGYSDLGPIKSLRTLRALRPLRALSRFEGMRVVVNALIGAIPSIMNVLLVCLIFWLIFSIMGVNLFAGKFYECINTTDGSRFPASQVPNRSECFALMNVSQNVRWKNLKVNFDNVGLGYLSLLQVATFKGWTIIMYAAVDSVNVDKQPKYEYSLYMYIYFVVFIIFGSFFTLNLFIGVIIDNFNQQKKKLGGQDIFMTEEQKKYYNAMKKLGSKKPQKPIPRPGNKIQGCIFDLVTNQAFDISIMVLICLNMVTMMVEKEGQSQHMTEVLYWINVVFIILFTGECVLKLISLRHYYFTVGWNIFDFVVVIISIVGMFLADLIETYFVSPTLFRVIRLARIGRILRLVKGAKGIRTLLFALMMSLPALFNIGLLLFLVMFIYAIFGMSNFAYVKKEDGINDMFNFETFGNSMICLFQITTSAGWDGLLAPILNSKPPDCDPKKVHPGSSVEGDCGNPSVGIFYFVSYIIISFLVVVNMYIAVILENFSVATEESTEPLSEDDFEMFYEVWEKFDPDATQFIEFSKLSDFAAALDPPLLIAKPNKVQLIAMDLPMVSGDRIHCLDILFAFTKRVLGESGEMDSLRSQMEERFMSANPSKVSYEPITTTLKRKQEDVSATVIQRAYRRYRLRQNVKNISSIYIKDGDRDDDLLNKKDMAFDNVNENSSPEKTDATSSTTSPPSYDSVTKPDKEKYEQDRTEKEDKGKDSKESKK

COCCOC(=O)C1=C(C)NC(C)=C(C(=O)OC/C=C/c2ccccc2)C1c1cccc([N+](=O)[O-])c1 (stereo not shown) [cilnidipine]
inhibition of Nav 1.7 compared to an 1800 mg dose of gabapentin: > 6 fold
